According to US20140323575A1, “TYROSINE ISOMERS AS THERAPEUTIC AGENTS” (CONSEJO NACIONAL DE INVESTIGACIONES CIENTIFICAS Y TECNICAS …, priority 2011, published 2014):

Test system: ERK1 and ERK2
Experiment: Western blot of p-ERK 1/2 in LB tumor cells
Assay type: cell-based, mice
Settings: LB cells cultured 3 minutes with m-tyrosine (250 μg/mL)
Protocol: FIG. 8 illustrates the effect of meta-tyrosine on the expression of phosphorylated (p)-Erk 1/2 and p-STAT3 in LB tumor cells using Western blot: 3×10^5 LB tumor cells in 0.1 mL of medium were cultured in the presence of 0.1 mL of meta-tyrosine (m-Tyr; 250 μg/mL), phenylalanine (Phe, 250 μg/mL), meta-tyrosine (250 μg/mL)+phenylalanine (250 μg/mL), or saline for 3 minutes (to measure p-ERK 1/2) or for 8 hours (to measure p-STAT3). Positive control was obtained by treating LB cells with pervanadate. Controls with acting, total ERK 1/2, and total STAT3 were also added. FIG. 8A illustrates a representative experiment showing p-ERK 1/2 expression. FIG. 8B is a histogram showing the mean of 5 experiments; a, P<0.01 versus saline and versus meta-tyrosine+phenylalanine; P<0.02 versus phenylalanine. FIG. 8C illustrates a representative experiment showing p-STAT3 expression. […]
On this basis, we analyzed, first, the effect of m-tyrosine on ERK1 and ERK2 as 2 examples of protein kinases that are activated by the mitogen activated protein/extracellular signal-regulated kinase (MAP/ERK) signal transduction pathway that normally couples intracellular responses associated with cell proliferation, to the binding of growth factors to cell surface receptors (Kohno M, and Pouyssegur J. 2006. Targeting the ERK signaling pathway in cancer therapy. Ann Med; 38:200-211). […]

SMILES: NC(Cc1cccc(O)c1)C(=O)O (stereo not shown) [meta-tyrosine, 3-hydroxyphenylalanine]
- activation of ERK1 and ERK2 (p-ERK 1/2 expression): significantly reduced
